Data taken from patent publication US20240041986A1, “METHODS AND COMPOSITIONS FOR THE TREATMENT AND PREVENTION OF TYPE 1 DIABETES” (Dr. Mary Morris & Associates, LLC, priority 2020, published 2024).

Assays:
Format in all cases: in vivo, mouse
[1] = system: C-peptide; assay: Serum C-peptide ELISA (ALPCO) in sublingually treated NOD mice; conditions: NOD mice fasted overnight, Humulin started at 5 weeks of age, serum at 6 and 19 weeks of age (FIG. 5)
Method: Serum C-peptide assay. The mouse C-peptide ELISA (ALPCO), which quantifies C-peptide protein products of mouse I and mouse II proinsulin genes, was used. Briefly, mice are fasted overnight and blood is collected by inserting a needle into the submandibular vein and collecting ˜0.2 mL of blood. The blood is centrifuged for 10 minutes at 3000×g in a refrigerated centrifuge, and serum is collected and stored −80° C. The ALPCO C-peptide ELISA is a commercially available FDA Registered For In Vitro Diagnostic Use tool for the quantification of […] C-peptide in serum and plasma samples.
Female NOD mice were randomly assigned to two groups according to Example 3. C-peptide levels in serum were determined by ALPCO C-peptide ELISA from serum samples collected at 6 and 19 weeks of age in mice that were fasted overnight.

[2] = system: NOD mice; assay: Incidence and time to onset of Type 1 diabetes (hyperglycemia, blood glucose above 300 mg/dL) in NOD mice after sublingual treatment; conditions: for Median survival: control 21.00; for Median Survival (i.e., time to Type 1 diabetes onset): sublingual 87 μg Humulin, control 21 weeks
Method: Sublingual formulation. A commercial high dose Humulin® insulin solution (Humulin® R U-500) containing 500 units of insulin per mL is mixed with an additional equal volume (1:1 (vol:vol)) 100% glycerin. Each dose contains 10 μL of the Humulin®-glycerin solution, which contains 2.5 units (approximately 87 micrograms) of insulin in a solution having a final concentration of ˜52 vol. % glycerin.
NOD mice. Non-obese diabetic (NOD) mice, as described by Makino (Adv. Immunol. 51:285-322 (1992)), are used in the studies described herein. NOD mice provide a widely accepted animal model for the spontaneous development of Type 1 diabetes. NOD mice develop insulitis as a result of leukocyte infiltration into the pancreatic islet, which in turn leads to the destruction of pancreatic islets and a Type 1 diabetic phenotype.
Five-week old female NOD mice were randomly assigned to three groups: (1) control group (1:1 glycerin/phosphate buffered saline (PBS)); (2) insulin-related peptide treatment (Humulin®) started at six weeks of age; or (3) insulin-related peptide treatment (Humulin®) started at ten weeks of age. Mice in the treatment groups (2) and (3) were sublingually administered 2.5 units/87 μg of Humulin® R insulin (10 μL of solution) twice per day […] from age 5 weeks 5 until 8 weeks of age and then once per day, five days per week up to 30 weeks of age. Blood glucose measurements were taken once per week up to 20 weeks of age, and then twice per week thereafter. Mice were classified as diabetic after three consecutive blood glucose readings above 300 mg/dL (hyperglycemic).
Female NOD mice were randomly assigned to two groups: (1) control group (50% glycerin/phosphate buffered saline (PBS)); or (2) insulin-related peptide treatment (Humulin® in 50% glycerin solution; Humulin® sublingual immunotherapy (“Humulin SLIT”)) started at five weeks of age. Mice in the treatment group (2) were sublingually administered 87 μg of Humulin® once per day, five days per week starting at five weeks of age up to 30 weeks of age. Blood glucose measurements were taken once per week up to 13 weeks of age, and then twice per week thereafter. Mice were classified as diabetic after three consecutive blood glucose readings above 300 mg/dL (hyperglycemic). […]

[3] = system: anti-insulin antibodies; assay: Anti-insulin antibody ELISA of serum from sublingually treated NOD mice
Method: Autoantibody titer assay. To detect anti-insulin antibodies 96-well ELISA plates were coated with 1 μg/well of Humulin® overnight at 4° C. and were blocked with 1% BSA in PBS. Sera were divided into two equal aliquots that were incubated with or without 10 μg/ml Humulin® on ice for 1 h. The sera were then added to Humulin® coated plates for incubation overnight at 4° C. After extensive washes, the plates were incubated with HRP-conjugated goat anti-mouse IgG The assay is described in Wan et al., J Exp Med. 2016 May 30; 213(6): 967-978.
Five-week old female NOD mice were randomly assigned to two groups: (1) control group (50% PBS/glycerin); and (2) insulin-related peptide treatment (Humulin® insulin) started at six weeks of age. Mice in the treatment group (2) were sublingually administered 87 μg of Humulin® in 50% glycerin solution twice per day, five days per week, up to 30 weeks of age. Serum samples were collected from control and Humulin® SLIT treated NOD mice at 14 weeks of age and assessed for levels of anti-insulin antibody titer (i.e., after sublingual administration of Humulin® for 8 weeks) and stored at −80 C until tested for anti-insulin antibodies in the ELISA described above. The level of anti-insulin antibodies in the samples was determined by ELISA using the assay described in Wan et al., J Exp Med. 2016 May 30; 213(6): 967-978 and the results are shown in FIG. 2. […]

[4] = Humulin started at 5 weeks of age (FIG. 3)
[5] = Humulin started at 5 weeks of age vs control (FIG. 3)
[6] = Humulin started at 6 weeks of age (FIG. 1A)
[7] = Humulin started at 6 weeks of age vs control (FIG. 1A)
[8] = Humulin started at 10 weeks of age (FIG. 1B)
[9] = Humulin started at 10 weeks of age vs control (FIG. 1B)
[10] = combined FIG. 1A and FIG. 3 (FIG. 6)
[11] = combined FIG. 1A and FIG. 3 vs control (FIG. 6)

## Humulin: commercial recombinant human insulin solution (Humulin® R U-500) mixed 1:1 with glycerin, sublingual formulation, 87 μg per 10 μL dose
[1]
  serum C-peptide levels as compared to untreated control NOD mice: either a maintenance or enhancement
[2]; [4]
  Ratio of median survival (Control / Humulin): 0.7119
  Reciprocal of ratio of median survival: 1.405
[2]; [5]
  Are the survival curves sig different? Gehan-Breslow-Wilcoxon test: Yes
  Are the survival curves sig different? Log-rank (Mantel-Cox) test: Yes
[2]; [6]
  Ratio of median survival (Control / Humulin): 0.778
  Reciprocal of ratio of median survival: 1.29
[2]; [7]
  Are the survival curves significantly different? Gehan-Breslow-Wilcoxon test: Yes
  Are the survival curves significantly different? Log-rank (Mantel-Cox) test: Yes
[2]; [8]
  Ratio of median survival (Control / Humulin): 0.8750
  Reciprocal of ratio of median survival: 1.14
[2]; [9]
  Are the survival curves significantly different? Gehan-Breslow-Wilcoxon test: No
  Are the survival curves significantly different? Log-rank (Mantel-Cox) test: No
[2]; NOD mice, sublingual Humulin started at five weeks of age (FIG. 3)
  incidence (% diabetic) and onset time (weeks) of Type 1 diabetes as compared to the control group: reduced
[2]; NOD mice, sublingual Humulin started at six weeks of age (FIG. 1A)
  incidence (% T1D Onset) and onset time (weeks) of Type 1 diabetes as compared to the control group: significantly reduced
[2]; [10]
  Ratio of median survival (Control / Humulin): 0.8077
  Reciprocal of ratio of median survival: 1.238
[2]; [11]
  Are the survival curves sig different? Gehan-Breslow-Wilcoxon test: Yes
  Are the survival curves sig different? Log-rank (Mantel-Cox) test: Yes
[2]; combined results of FIG. 1A and FIG. 3, Humulin started at 5 or 6 weeks of age (FIG. 6, time in Weeks)
  Median survival: 26.00
[2]; female NOD mice, sublingual 87 μg Humulin once per day, five days per week, started at 5 weeks of age (FIG. 3, time in Weeks)
  Median survival: 29.50
[2]; female NOD mice, started at 6 weeks of age (FIG. 1A)
  Median Survival (i.e., time to Type 1 diabetes onset): 27 weeks
[2]; female NOD mice, started at 10 weeks of age (FIG. 1B)
  Median Survival (i.e., time to Type 1 diabetes onset): 24 weeks
[3]; 87 μg Humulin started at five weeks of age, serum at 19 weeks of age (FIG. 4)
  development of anti-insulin antibodies as compared to the control group: significantly reduced
[3]; 87 μg Humulin started at six weeks of age, serum at 14 weeks of age (FIG. 2)
  development of anti-insulin antibodies as compared to the control group: significantly reduced
